From ChEMBL document CHEMBL2040837, “Synthesis and cytotoxic activity of some 17-picolyl and 17-picolinylidene androstane derivatives” (Eur J Med Chem, 2012)

Legend:
[1] = system: MRC5; experiment: Cytotoxicity against human MRC5 cells […] by SRB assay; format: cell-based
[2] = system: PC-3; experiment: Cytotoxicity against AR-negative human PC3 cells after 48 hr by SRB assay; conditions: PC-3, 48 h
[3] = system: MCF7; experiment: Cytotoxicity against ER-positive human MCF7 cells after 48 hr by SRB assay; conditions: MCF7, 48 h
[4] = system: MDA-MB-231; experiment: Cytotoxicity against ER-negative human MDA-MB-231 cells after 48 hr by SRB assay; conditions: for IC50: MDA-MB-231, 48 h
[5] = system: HeLa; experiment: Cytotoxicity against human HeLa cells […] by SRB assay; format: functional, cell-based
[6] = system: HT-29; experiment: Cytotoxicity against human HT-29 cells […] by SRB assay; format: functional, cell-based
[7] = system: MDA-MB-231; experiment: Cytotoxicity against ER-negative human MDA-MB-231 cells at <1 uM after 48 hr by SRB assay
[8] = system: MDA-MB-231; experiment: Ratio of 17alpha-picolyl-androst-5-en 3beta, 17beta-diol IC50 to compound IC50 cytotoxicity against ER-negative human MDA-MB-231 cells after 48 hr by SRB assay

## C[C@]12CC[C@H](O)CC1=CC[C@@H]1[C@@H]2CC[C@@]2(C)[C@H]1CC[C@@]2(O)Cc1ccccn1
[1]
  IC50: > 100 µM
[2]
  IC50: 6.3 µM
[3]
  IC50: > 100 µM
[4]
  Activity: Dose-dependent effect
  IC50: 96.1 µM

## COC1=C2CC[C@@H]3[C@H](CC[C@@]4(C)[C@H]3CC[C@@]4(O)Cc3ccccn3)[C@@]2(C)CCC1=O
[5]
  IC50: 19.1 µM
[6]
  IC50: > 100 µM
[1]
  IC50: > 100 µM
[2]
  IC50: 54.8 µM
[3]
  IC50: > 100 µM
[4]
  Activity: Dose-dependent effect
  IC50: 42.6 µM

## COC1=C2CC[C@@H]3[C@H](CC[C@]4(C)/C(=C/c5ccccn5)CC[C@@H]34)[C@@]2(C)CCC1=O
[5]
  IC50: 15.3 µM
[6]
  IC50: 56 µM
[1]
  IC50: > 100 µM
[2]
  IC50: 34.1 µM
[3]
  IC50: > 100 µM
[4]
  Activity: Dose-dependent effect
  IC50: 4.1 µM
[7]
  Activity: 10%

## C[C@]12CCC=CC1=CC[C@@H]1[C@@H]2CC[C@]2(C)/C(=C/c3ccccn3)CC[C@@H]12
[5]
  IC50: 23.3 µM
[6]
  IC50: 1.8 µM
[1]
  IC50: > 100 µM
[2]
  IC50: 19.9 µM
[3]
  IC50: 55.8 µM
[4]
  Activity: Dose-dependent effect
  IC50: 4.6 µM

## COc1cccc2c1C(=O)c1c(O)c3c(c(O)c1C2=O)C[C@@](O)(C(=O)CO)C[C@@H]3O[C@H]1C[C@H](N)[C@H](O)[C@H](C)O1 [DOXORUBICIN]
[5]
  IC50: 1.17 µM
[6]
  IC50: 0.32 µM
[1]
  IC50: 0.12 µM
[2]
  IC50: 95.6 µM
[3]
  IC50: 0.75 µM
[4]
  Activity: Dose-dependent effect
  IC50: 0.12 µM

## C[C@]12CCC(=O)C(O)=C1C=C[C@@H]1[C@@H]2CC[C@@]2(C)[C@H]1CC[C@@]2(O)Cc1ccccn1
[5]
  IC50: 36.6 µM
[6]
  IC50: > 100 µM
[1]
  IC50: > 100 µM
[2]
  IC50: 25.6 µM
[3]
  IC50: 3.6 µM
[4]
  Activity: Dose-dependent effect
  IC50: 1.2 µM

## C[C@]12CCC(=O)C=C1C(=O)C[C@@H]1[C@@H]2CC[C@@]2(C)[C@H]1CC[C@@]2(O)Cc1ccccn1
[5]
  IC50: > 100 µM
[6]
  IC50: > 100 µM
[1]
  IC50: > 100 µM
[2]
  IC50: 4.3 µM
[3]
  IC50: > 100 µM
[4]
  Activity: Dose-dependent effect
  IC50: > 100 µM

## C[C@]12CC[C@H](O)[C@H](O)C1=CC[C@@H]1[C@@H]2CC[C@@]2(C)[C@H]1CC[C@@]2(O)Cc1ccccn1
[5]
  IC50: 26.6 µM
[6]
  IC50: 8 µM
[1]
  IC50: > 100 µM
[2]
  IC50: 52.1 µM
[3]
  IC50: > 100 µM
[4]
  Activity: Dose-dependent effect
  IC50: 9 µM
[8]
  Ratio IC50: 10

## C[C@]12CC[C@H](O)C=C1CC[C@@H]1[C@@H]2CC[C@@]2(C)[C@H]1CC[C@@]2(O)Cc1ccccn1
[5]
  IC50: 26.9 µM
[6]
  IC50: > 100 µM
[1]
  IC50: > 100 µM
[2]
  IC50: 22.3 µM
[3]
  IC50: > 100 µM
[4]
  Activity: Dose-dependent effect
  IC50: 3.8 µM

## CC(=O)O[C@@H]1C=C2CC[C@@H]3[C@H](CC[C@@]4(C)[C@H]3CC[C@@]4(O)Cc3ccccn3)[C@@]2(C)CC1
[5]
  IC50: > 100 µM
[6]
  IC50: 10.6 µM
[1]
  IC50: > 100 µM
[2]
  IC50: 31.3 µM
[3]
  IC50: > 100 µM
[4]
  Activity: Dose-dependent effect
  IC50: 10.2 µM

## C[C@]12CC[C@H](O)[C@@H](O)C1=CC[C@@H]1[C@@H]2CC[C@@]2(C)[C@H]1CC[C@@]2(O)Cc1ccccn1
[5]
  IC50: 21.3 µM
[6]
  IC50: 2.6 µM
[1]
  IC50: > 100 µM
[2]
  IC50: 21.3 µM
[3]
  IC50: > 100 µM
[4]
  Activity: Dose-dependent effect
  IC50: 5.6 µM
[8]
  Ratio IC50: 17

## C[C@]12CCC(=O)C(O)=C1CC[C@@H]1[C@@H]2CC[C@]2(C)C(=O)CC[C@@H]12 [FORMESTANE]
[5]
  IC50: 5.55 µM
[6]
  IC50: > 100 µM
[1]
  IC50: > 100 µM
[2]
  IC50: 48.4 µM
[3]
  IC50: > 100 µM
[4]
  Activity: Dose-dependent effect
  IC50: 55.5 µM

## C[C@]12CC[C@H](O)C=C1CC[C@@H]1[C@@H]2CC[C@]2(C)/C(=C/c3ccccn3)CC[C@@H]12
[1]
  IC50: > 100 µM
[2]
  IC50: 10.1 µM
[3]
  IC50: > 100 µM
[4]
  Activity: Dose-dependent effect
  IC50: > 100 µM

## C[C@]12CCC(=O)C(O)=C1C=C[C@@H]1[C@@H]2CC[C@]2(C)/C(=C/c3ccccn3)CC[C@@H]12
[1]
  IC50: > 100 µM
[2]
  IC50: > 100 µM
[3]
  IC50: > 100 µM
[4]
  Activity: Dose-dependent effect
  IC50: 9.3 µM

## C[C@]12CCC=CC1=CC[C@@H]1[C@@H]2CC[C@@]2(C)[C@H]1CC[C@@]2(O)Cc1ccccn1
[5]
  IC50: 27.5 µM
[6]
  IC50: 11.7 µM
[1]
  IC50: > 100 µM
[2]
  IC50: 24.7 µM
[3]
  IC50: 17.4 µM
[4]
  Activity: Dose-dependent effect
  IC50: 2.3 µM

## C[C@]12CC[C@H]3[C@@H](C[C@@H]4O[C@@]45C[C@@H](O)CC[C@]35C)[C@@H]1CC[C@@]2(O)Cc1cccc[n+]1[O-]
[5]
  IC50: 33.5 µM
[6]
  IC50: 25.8 µM
[1]
  IC50: > 100 µM
[2]
  IC50: 33.6 µM
[3]
  IC50: > 100 µM
[4]
  Activity: Dose-dependent effect
  IC50: 7.5 µM
